Read-outs that look alike come from different tables or passages of the source. Primed or numbered codes have the meaning given here. Ends that are not written are not given here. TMR = fluorescent label conjugated to the Cys side chain; TMR″ = tetramethylrhodamine label

In assay [1] the test system is λ-DNA. As to conditions: cited from earlier work; for D1 ± s.e.: results from Xiong et al.
Assay [2] relates to phage λ DNA. The assay is described as follows: Sliding assay: total internal reflection fluorescence microscopy of single TMR-labeled peptides on flow-stretched phage λ DNA. The class given is biochemical, bacteriophage λ. As to conditions: for 1D diffusion constant, D+SD / 1D diffusion constant, D+SEM: single molecule sliding trajectories; for 1D diffusion constant, D+SD: spread = standard deviation (FIGS. 7-12); for 1D diffusion constant, D+SEM: spread = standard mean error (FIGS. 7-12); for estimated 1D diffusion constants, D: peptides diffusing along λ-DNA, low salt buffer (FIG. 6). An excerpt:
In vitro biophysical characterization of search process may be as follows. The search dynamics may be studied in vitro by directly observing fluorescently tagged compounds search DNA and bind their targets with a fluorescence microscope. In an exemplary method, linear fragments of DNA derived from bacteriophage λ (˜50 kb) are tethered on a glass coverslip and illuminated with TIRF microscopy. Flowing fluorescently tagged peptides over the coverslip stretches out the DNA hydrodynamically, and the peptides may be directly visualized as they search the DNA. Using computational algorithms, the peptides may be tracked and biophysical parameters such as the rate of diffusive translocation on DNA may be calculated from the estimated trajectories.
[…]. A flow cell was constructed on top of the cover slip such that when laminar flow is applied, the DNA stretches in the direction of flow and orients itself parallel to and in close proximity to the surface of the cover slip. Evanescent waves from a laser reflecting off the coverslip-buffer interface were used to illuminate a very small volume (˜1 pL) with a few hundred nanometers of the glass surface. The interaction of a single, TMR-labeled peptide with DNA was visualized by a CMOS camera (ORCA-Flash 4.0 from Hamamatsu) with 5 ms time-resolution. Despite the optical resolution limit imposed by diffraction, the centroid position of each signal in each frame is determined with sub-diffraction-limited resolution, typically 1-30 nm for bright fluorescent conjugates.
Labeled peptides were infused at concentration of 100-200 pM at rates of 20-50 mL/hour. High flow rates were chosen to drive the longitudinal DNA fluctuation faster than the imaging frame rate. The assay buffer consisted of 10 mM PBS (2 mM NaCl, 0.1 mM β-mercaptoethanol, 0.05 mM EDTA, 5% (v/v) glycerol, 0.01% (v/v) Tween-20, pH 6.8).

In assay [3] the target is 30 bp dsDNA. The settings on record: Table S1; Cy3B conjugated to Cys residues; results from Xiong et al; cited from earlier work.
Assay [4] concerns λ-DNA. Description: Single molecule flow stretching experiments (1D diffusion of dye-labeled molecular sleds on λ-DNA). The settings on record: for D1 ± s.e.: Table S5, 2 mM NaCl buffer, pH 7.4, >50 trajectories. Type of assay: biochemical, bacteriophage λ.
Source text: Single Molecule Flow Stretching Experiments: The experimental details have been described by Xiong et al. Briefly, flow cells were constructed by sandwiching a double-sided tape with pre-cut channels between a poly(ethylene glycol) (PEG) functionalized coverslip and a PDMS slab containing inlet and outlet holes. The biotin-λ-DNA was made by ligating a DNA oligo with a biotin attached to the 5′ overhang of λ-DNA, and then immobilized onto the flow channel surface by utilizing biotin and streptavidin chemistry. Samples were infused at 10-400 pM concentrations at rates of 25 ml/hr. The assay buffer consisted of 10 mM phosphate buffer, 2 mM NaCl, 50 μM EDTA, 20 mM ethanol, 5% (v/v) glycerol, 0.01% Tween-20 and 0.1% (v/v) $-mercaptoethanol, and the pH was adjusted to 7.4 by adding aliquots of concentrated NaOH solution. Individual dye-labeled molecules were imaged by using a home-built total internal reflection fluorescence microscope based on a Nikon Ti body with a Hamamatsu ORCA-Flash 4.0 VI camera. Applicants used customized single particle tracking software to process the raw image data^11.
To study the motion of single molecules bound to DNA, Applicants applied a single-molecule flow-stretching assay that prepares long double-stranded DNA molecules as spatially extended templates for analysis of binding and transport activity of molecular sleds labeled with fluorescent dye molecules. […] In this assay (see a schematic in FIG. 19), functionalized DNA, e.g., biotin-k-DNA, was immobilized to a flow channel surface by one end and a laminar flow was applied to flow stretch the DNA. The flow rate was chosen so that the contribution of DNA fluctuations to the apparent motion of DNA-bound molecules along the DNA is negligible and the trajectories of single molecules were tracked by time-lapse fluorescence imaging. Here, Applicants applied the flow-stretching assay to study one-dimensional diffusion of modified peptides, peptide analogs and synthetic small molecules bound to DNA.
Assay [5] has as its target 30 bp dsDNA. The assay is described as follows: Fluorescence polarization (FP) DNA binding experiments. As to conditions: Table S5; pH 7.4. In general terms: Polarisation of emitted light reports the rotation of a fluorescent probe.

Take “C(-TMR)-(K)13: TMR conjugated to Cys residue, SEQ ID NO: 36 (C(TMR)KKKKKKKKKKKKK)”: the “D1 ± s.e.” value in assay [1] (Table S3) was 19.9 ± 1.3 M(bp^2/S). Consider “NVKRRTHNVLERQRRNELKRSFFALRDQ [cMyc helix]”, for which, in assay [2], the “1D diffusion constant, D+SD” value is reported as 12.8±5.0 ×10^6 bp^2s^−1 and the “1D diffusion constant, D+SEM” value is 12.8±0.3 ×10^6 bp^2s^−1.

As to KRARNTEAARRSRAR [GCN4 helix], in assay [2], the “1D diffusion constant, D+SD” value is 12.8±5.5 ×10^6 bp^2s^−1 and the “1D diffusion constant, D+SEM” value is listed as 12.8±0.6 ×10^6 bp^2s^−1.

“KRARNTEAARRSRAR-GSGSGS-pVIc [GCN4 helix-linker-pVIc]”: in assay [2], the “1D diffusion constant, D+SD” value is reported as 9.6±4.3 ×10^6 bp^2s^−1 and the “1D diffusion constant, D+SEM” value is reported as 9.6±0.7 ×10^6 bp^2s^−1. Take “TMR-(K)13: TMR conjugated to the N-terminal amine, SEQ ID NO: 38 ({TMR″}-KKKKKKKKKKKKK)”: in assay [1] (Table S3), the “D1 ± s.e.” value is listed as 8.9 ± 0.5 M(bp^2/S). Consider “TMR-(R)13: TMR conjugated to the N-terminal amine, SEQ ID NO: 39 ({TMR″}-RRRRRRRRRRRRR)”, for which the “D1 ± s.e.” value in assay [1] (Table S3) was 7.7 ± 0.7 M(bp^2/S).

Consider KRRR ({TMR″}-KRRR), for which, in assay [2], the estimated 1D diffusion constants, D is 20.3 ± 7.9 million bp²/s.

Turning to “(K)13: TMR-labeled lysine homopolymer of 13 residues, SEQ ID NO: 52 (KKKKKKKKKKKKK; also: TMR-labeled, place not given here)”, the estimated 1D diffusion constants, D in assay [2] was 17.3 ± 5.3 million bp²/s. Broadly, the Kd is the free concentration of one partner at which half of the binding sites on the other are occupied at equilibrium, for simple one-to-one binding. For GVQSLKRRRCF [pVlc-Cy38], in assay [3], the Kd was 378 ± 20 nM. In assay [1] (Table S1, Cy3B conjugated to Cys residues), the “D1 ± s.e.” value is 35.1 ± 0.8 M(bp^2/S). Besides, the “sliding by itself (one-dimensional diffusion constant)” value in assay [1] (literature reference 11 (Xiong)) is reported as 35.2±0.8 M(bp2/s).

As for Cy3B-pentaethylenehexamine [Cy3B-PEHA], the “effect of increasing the salt concentration on the D1 value” in assay [4] (2 mM NaCl vs 20 mM NaCl buffers, pH 7.4 (FIG. 14)) is given as “does not increase”. For the same substance, the “D1 ± s.e.” value in assay [4] is listed as 10.1 ± 0.5 M(bp^2/S); in assay [4] (listed as PHEA-Cy3B), 10.1±0.5 M(bp^2/S). Besides, binding in assay [5] was put at a Kd of 1320 ± 248 nM.

For “C(-TMR)-(R)13: TMR conjugated to Cys residue, SEQ ID NO: 37 (C(TMR)RRRRRRRRRRRRR)”, the “D1 ± s.e.” value in assay [1] (Table S3) is 12.9 ± 0.5 M(bp^2/S). Take “KRARNTEAARRSRAR-GSGSGS-KRRR (KRARNTEAARRSRARGSGSGSKRRR) [GCN4 helix-linker-KRRR]”: in assay [2], the “1D diffusion constant, D+SD” value is listed as 11.3±4.1 ×10^6 bp^2s^−1 and the “1D diffusion constant, D+SEM” value is 11.3±0.6 ×10^6 bp^2s^−1. For the substance FHHHHH, the estimated 1D diffusion constants, D in assay [2] was 14.9 ± 6.9 million bp²/s. Consider “GRKKRRQRRRPPQ (also: TMR label, place not given here) [TAT]”, for which the estimated 1D diffusion constants, D in assay [2] was 21 ± 7.5 million bp²/s. As to “STSRHKKLMFKTE ({TMR″}-STSRHKKLMFKTE) [C-terminal sequence of p53]”, in assay [2], the estimated 1D diffusion constants, D is 17.3 ± 5.3 million bp²/s.

(Values after US12146880B2, “Artificial transcription factors comprising a sliding domain and uses thereof” (priority 2013, dated 2024).)
